# Values of other authors, collected in patent US10945947B2, “Formulations for intravenous administration” (GLAXOSMITHKLINE INTELLECTUAL PROPERTY (NO.2) LIMITED, priority 2015, dated 2021).
# Counter-ions that a name gives are not always drawn.
# Settings: at a higher pH, after oral administration
smiles,measurement,value
Cc1c(F)cccc1NC(=O)Nc1ccc(Cl)c(S(=O)(=O)[C@H]2CCCNC2)c1O [hydrobromide salt of danirixin],solubility and dissolution profiles compared to the free base,improved solubility and dissolution profiles
